Results on 5 compounds are retold here after BindingDB's records for doi:10.3109/14756360903389872 (Medical University, 2010).

Assay in all cases: Antiamidolytic Assay
The target in one experiment is Plasminogen (Homo sapiens, UniProt P00747). On the procedure: (§1) Quantities of 0.2 mL of examined preparation (as control, 0.15 M NaCl), buffer, and 0.1 mL of enzyme solution were mixed together. The mixture was incubated at 37°C for 3 min then the synthetic substrate solution in the same buffer was added. After 20 min of incubation, the reaction was stopped by adding 0.1 mL of 50% acetic acid, and the absorbance of the released p-nitroaniline was measured at 405 nm.

For experiment [1], the target named is Urokinase-type plasminogen activator (Homo sapiens, UniProt P00749). On the procedure: as §1
A further experiment deals with Serine protease 1 (Homo sapiens, UniProt P07477). The method, then:
as §1

Sequence of Plasminogen (P00747 97-580 limits assumed): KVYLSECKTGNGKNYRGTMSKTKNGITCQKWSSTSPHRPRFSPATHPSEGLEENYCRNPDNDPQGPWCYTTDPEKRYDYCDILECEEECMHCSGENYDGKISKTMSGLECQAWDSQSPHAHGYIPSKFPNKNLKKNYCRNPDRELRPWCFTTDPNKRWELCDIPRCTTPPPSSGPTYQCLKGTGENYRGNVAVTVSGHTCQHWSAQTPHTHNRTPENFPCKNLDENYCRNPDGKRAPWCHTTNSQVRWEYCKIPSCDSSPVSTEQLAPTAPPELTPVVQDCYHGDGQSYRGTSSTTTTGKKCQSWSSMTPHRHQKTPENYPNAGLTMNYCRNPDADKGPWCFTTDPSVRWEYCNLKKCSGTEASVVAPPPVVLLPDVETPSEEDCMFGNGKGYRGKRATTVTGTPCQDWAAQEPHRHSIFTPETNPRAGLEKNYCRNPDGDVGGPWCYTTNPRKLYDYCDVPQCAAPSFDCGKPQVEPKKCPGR
Sequence of Plasminogen (P00747 581-810 limits assumed): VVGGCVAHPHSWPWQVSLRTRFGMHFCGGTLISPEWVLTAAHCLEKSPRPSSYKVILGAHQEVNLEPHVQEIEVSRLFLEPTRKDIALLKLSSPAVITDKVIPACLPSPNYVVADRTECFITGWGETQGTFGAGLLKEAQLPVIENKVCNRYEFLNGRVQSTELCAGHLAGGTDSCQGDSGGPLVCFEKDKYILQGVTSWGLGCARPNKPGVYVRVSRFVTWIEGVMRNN
Sequence of Serine protease 1 (P07477 whole entry): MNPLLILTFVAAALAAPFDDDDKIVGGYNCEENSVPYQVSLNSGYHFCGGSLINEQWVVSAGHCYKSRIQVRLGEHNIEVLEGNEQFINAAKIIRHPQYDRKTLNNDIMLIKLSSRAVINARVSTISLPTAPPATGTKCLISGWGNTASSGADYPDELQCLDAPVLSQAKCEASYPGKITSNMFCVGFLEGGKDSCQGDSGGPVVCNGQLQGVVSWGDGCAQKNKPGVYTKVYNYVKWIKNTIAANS

As a reminder, the IC50 is the concentration at which inhibition is half-maximal. High values mean weaker potency in that assay, low ones greater potency in that assay. For `Cn1cc(NC(=O)c2cc(NC(=O)CN=C(N)N)cn2C)cc1C(=O)NCCC(=N)N`, the IC50 on Plasminogen was found to be 40 µM; in experiment [1], 30 µM.
`N=C(N)c1ccc(OCCCCCOc2ccc(C(=N)N)cc2)cc1` [4-[5-(4-carbamimidoylphenoxy)pentoxy]benzenecarboximidamide;2-oxidanylethanesulfonic acid]: the IC50 was less than 10 µM against Plasminogen, 100 µM against Serine protease 1 and 20 µM in experiment [1].
Compound `Nc1cccc(C(=O)Nc2cccc(C(=O)NCCCNC(=O)c3cccc(NC(=O)c4cccc(N)c4)c3)c2)c1` [Carbocyclic minor groove binder, 4] came in with an IC50 against Plasminogen of 20 µM.
For `Nc1cccc(C(=O)Nc2cccc(C(=O)NCCCCNC(=O)c3cccc(NC(=O)c4cccc(N)c4)c3)c2)c1` [Carbocyclic minor groove binder, 5], the IC50 is 20 µM against Plasminogen and 10 µM in experiment [1].
Turning to `Nc1cccc(C(=O)Nc2cccc(C(=O)NCCCCCNC(=O)c3cccc(NC(=O)c4cccc(N)c4)c3)c2)c1` [Carbocyclic minor groove binder, 6], the IC50 worked out at 10 µM against Plasminogen, 20 µM at Serine protease 1 and 14 µM in experiment [1].
